{"source": "ChEMBL document CHEMBL1649153", "about": "“Population pharmacokinetics of high-dose, prolonged-infusion cefepime in adult critically ill patients with ventilator-associated pneumonia” (Antimicrob Agents Chemother, 2009)", "key": {"Serum": {"test_system": "Serum", "assay": "Serum creatinine level in critically ill patient with ventilator-associated pneumoniae at […] administered as 3 hr infusion every 8 hrs by HPLC", "assay_type": "ADME, organism-based", "conditions": "human, in vivo, iv"}, "Homo sapiens": {"test_system": "Homo sapiens", "assay": "Toxicity in critically ill patient with ventilator-associated pneumoniae assessed as adverse effects at […] administered as 3 hr infusion every 8 hrs by HPLC", "assay_type": "organism-based", "conditions": "in vivo, iv"}}}
{"compound": "CO/N=C(\\C(=O)N[C@@H]1C(=O)N2C(C(=O)[O-])=C(C[N+]3(C)CCCC3)CS[C@H]12)c1csc(N)n1", "note": "[CEFEPIME]", "values": [{"measurement": "serum creatinine", "setting": "Serum", "result": 0.8, "unit": "mg/dL"}, {"measurement": "Activity", "setting": "Homo sapiens", "result": "Non-toxic"}]}
